{"source": "patent US6759241B1", "about": "“Adjuvant comprising a lipopolysaccharide antagonist” (priority 1999, dated 2004)", "key": {"[1]": {"test_system": "human peripheral blood mononuclear cells (PBMCs)", "assay": "LPS antagonist activity: TNFα secretion by stimulated human PBMCs (capture ELISA)", "format": "cell-based", "conditions": "1 μg/ml + W3110 (10 ng/ml), 8 hr", "method": "W3110 LPS (also cultured at 37° C.) from 1 ng/ml to 100 ng/ml alone and W3110 LPS (10 ng/ml) mixed with synthetic lipid IVA (1 μg/ml) were used as controls. For this, PBMCs were obtained from 50 ml of whole blood and resuspended in complete medium (CM; RPMI containing pyruvate, glutamine, PenStrep, and 10% endotoxin-free human AB serum (Life Technologies) at a density of 6×10^6 PBMCs/ml. CM containing W3110 LPS, MLK986 LPS or synthetic lipid IVA was placed into duplicate wells of a 96-well flat bottom culture plate (Costar) at double the target final concentration. An equal volume of CM containing the PBMCs then was added to these wells and the culture plates were incubated at 37° C. in 5% CO2 for 8 hr. The supernatants were then removed and stored at […] Quantitation of TNFα, IL-1β, and IL-6 in these culture supernatants was achieved by capture ELISA (R&D Systems)."}, "[2]": {"test_system": "BALB/c mice", "assay": "Adjuvant activity with protein antigen gp120: anti-gp120 serum IgG by ELISA", "format": "in vivo", "method": "Vaccine preparations containing an LPS antagonist and a protein antigen can be prepared in the following manner. Each vaccine preparation contained 5 μg of fully glycosylated endotoxia-free HIV-1MN gp120 (Virostat Cat. No. 8919, Lot AM735). Preparations comprised of gp120 and LPS antagonist were formulated essentially as outlined in Example 2 above except that each dose contained 5 μg of gp120 combined with a range of LPS antagonist doses (from 1 μg to 10 μg). The LPS antagonist was isolated from MLK986 cultured at 37° C. as described above.\nGroups of 3 BALB/c mice were given a single dose of a given preparation of gp120 and LPS antagonist subcutaneously (primary vaccination). To determine the immunogenicity of the antigen in the absence of LPS antagonist, a group of BALB/c mice were vaccinated with 5 μg gp 120 formulated alone. For comparative purposes, an additional group of mice were vaccinated with 5 μg of gp120 formulated with Alum, as described (Coligan, et al., 1994, supra).\nTo measure the immunogenicity of each formulation, sera were collected from the mice in each group before and on day 14 after primary vaccination, as described in Example 2 above. On day 21 after the primary vaccination, mice were given a booster vaccination containing […] of gp120 formulated with matched doses of LPS antagonist, as was given in the primary vaccination. Ten and 17 days after the boost, venous blood was collected from the mice, and sera were obtained as outlined above. The level of anti-gp120 IgG in pooled serum samples was determined by ELISA as described in Example 2 above, except that gp120 was used in place of Hep-Tat in the first coating step. The results of the ELISA were obtained by reading the optical density of each well using a Molecular Dynamics ELISA plate reader and are shown in Table 3 below. The data are presented as dilution of the sera to achieve 50% saturation."}, "[3]": {"test_system": "BALB/c mice", "assay": "Adjuvant activity with peptide antigen Hep-Tat: Hep-Tat-specific serum IgG by ELISA", "format": "in vivo", "method": "Vaccine preparations containing a peptide antigen and an LPS antagonist were prepared in the following manner. Each vaccine preparation contained […] of the vaccine peptide (herein designated “Hep-Tat”) that corresponds to the heparin-binding domain of the HIV-1 regulatory protein Tat and is comprised of the following sequence (GLGIS YGRKKRRQR; SEQ ID NO: 1). The peptide antigen was prepared synthetically as a Multiple Antigen Peptide (MAPS;Genosys). To formulate the preparations comprised of Hep-Tat and LPS antagonist (purified as outlined above), […] of Hep-Tat was combined with a range of LPS antagonist doses (from […]). The LPS antagonist was isolated from MLK986 cultured at 37° C. as described in. Example 1.\nGroups of three BAL Blc mice were injected intraperitoneally with a single dose of a given preparation of Hep-Tat and LPS antagonist (i.e., primary vaccination). To determine the immunogenicity of the antigen in the absence of LPS antagonist, a group of BALB/c mice were vaccinated with 50 μg Hep-Tat formulated-alone. For comparative purposes, an additional group of mice was vaccinated with 50 μg Hep-Tat formulated with Alum, as described (Coligan, et al., 1994, supra).\nTo measure the immunogenicity of each formulation, venous blood was collected from the mice in each group before and on day 14 after primary vaccination, as described (Coligan, et al., 1994, supra). Serum was then obtained from each of these blood samples using standard techniques (Coligan, et al., 1994, supra). On day 21 after the primary vaccination, mice were given a booster vaccination containing the same dose of Hep-Tat and LPS antagonist or alum as was given in the primary vaccination. Seven days after the boost, venous blood was collected from the mice in each, and sera were obtained as outlined above. Each of the serum samples from individual groups were pooled and the level of Hep-Tat-specific IgG was ascertained by ELISA. In short, plastic 96 well ELISA plates (Immunol 2 Dynatech) were coated with Hep-Tat, by adding […] of Hep-Tat at 10 μg/ml suspended in PBS (Phosphate Buffer Saline) pH 7.4 in each well, and incubating overnight at 4° C. The plates were subsequently washed to remove unbound peptide and then 100 μl of blocking solution (comprised of 1% (w/v) Bovine Serum Albumin (BSA; Sigma) suspended in PBS) was added to each well. […] The result of the ELISA were obtained by reading the optical density of each well using a Molecular Dynamics ELISA plate reader. […]"}, "[4]": {"conditions": "Pre (before primary vaccination), pooled sera"}}, "note": "Where no end group is shown, it is not given here.", "data": [{"compound": "CCCCCCCCCCC[C@@H](O)CC(=O)N[C@H]1[C@H](OC[C@H]2O[C@H](OP(=O)(O)O)[C@H](NC(=O)C[C@H](O)CCCCCCCCCCC)[C@@H](OC(=O)C[C@H](O)CCCCCCCCCCC)[C@@H]2O)O[C@H](CO)[C@@H](OP(=O)(O)O)[C@@H]1OC(=O)C[C@H](O)CCCCCCCCCCC", "note": "[Lipid IVA]", "values": [{"measurement": "TNFa", "setting": "[1]", "result": "<30", "unit": "pg/mL"}]}, {"compound": "Gp120: fully glycosylated endotoxin-free HIV-1MN gp120 (Virostat Cat. No. 8919)", "values": [{"measurement": "Gp120-specific serum antibodies (anti-gp120 IgG), dilution of the sera to achieve 50% saturation", "setting": "[2]; 5 μg gp120 alone, subcutaneous, Day 14", "result": "<10"}, {"measurement": "immunogenicity of the antigen dose", "setting": "[2]; 5 μg of gp120 formulated with Alum, preliminary experiments", "result": "marginally immunogenic"}, {"measurement": "Gp120-specific serum antibodies (anti-gp120 IgG), dilution of the sera to achieve 50% saturation", "setting": "[2]; [4]", "result": "−10"}, {"measurement": "Gp120-specific serum antibodies (anti-gp120 IgG), dilution of the sera to achieve 50% saturation", "setting": "[2]; gp120 alone, subcutaneous, boosted, Day 21", "result": "<10"}]}, {"compound": "Hep-Tat: vaccine peptide, heparin-binding domain of HIV-1 Tat (GLGIS YGRKKRRQR; SEQ ID NO: 1), Multiple Antigen Peptide (GLGISYGRKKRRQR; also: multiple antigen peptide format)", "values": [{"measurement": "Tat-specific antibodies (Hep-Tat-specific IgG), dilution of the sera to achieve the 50% saturation", "setting": "[3]; 50 μg Hep-Tat alone, intraperitoneal, boosted, Day 21", "result": "<10"}, {"measurement": "Tat-specific antibodies (Hep-Tat-specific IgG), dilution of the sera to achieve the 50% saturation", "setting": "[3]; 50 μg Hep-Tat alone, intraperitoneal, Day 14", "result": "<10"}, {"measurement": "immunogenicity of the antigen dose", "setting": "[3]; 50 μg of Hep-Tat formulated with Alum (Pierce), preliminary experiments", "result": "marginally immunogenic"}, {"measurement": "Tat-specific antibodies (Hep-Tat-specific IgG), dilution of the sera to achieve the 50% saturation", "setting": "[3]; [4]", "result": "<10"}]}]}
